The values that follow come from PubChem BioAssay AID651901 (NMMLSC, 2012).

Active and inactive are the calls of the source. No rule for the calls is given here.

The assay concerns the target Lethal factor (Bacillus anthracis) (UniProt P15917). The assay is described as follows: Bacillus anthracis LF protease inhibitors, dose response, biochemical, multiplex microsphere (AID 651901). The following applies: multiplex microsphere LF protease cleavage assay, flow cytometry. (In general: In flow cytometry, cells or beads pass a laser one at a time.)

Chain of Lethal factor (Bacillus anthracis) (P15917 whole entry, looked up): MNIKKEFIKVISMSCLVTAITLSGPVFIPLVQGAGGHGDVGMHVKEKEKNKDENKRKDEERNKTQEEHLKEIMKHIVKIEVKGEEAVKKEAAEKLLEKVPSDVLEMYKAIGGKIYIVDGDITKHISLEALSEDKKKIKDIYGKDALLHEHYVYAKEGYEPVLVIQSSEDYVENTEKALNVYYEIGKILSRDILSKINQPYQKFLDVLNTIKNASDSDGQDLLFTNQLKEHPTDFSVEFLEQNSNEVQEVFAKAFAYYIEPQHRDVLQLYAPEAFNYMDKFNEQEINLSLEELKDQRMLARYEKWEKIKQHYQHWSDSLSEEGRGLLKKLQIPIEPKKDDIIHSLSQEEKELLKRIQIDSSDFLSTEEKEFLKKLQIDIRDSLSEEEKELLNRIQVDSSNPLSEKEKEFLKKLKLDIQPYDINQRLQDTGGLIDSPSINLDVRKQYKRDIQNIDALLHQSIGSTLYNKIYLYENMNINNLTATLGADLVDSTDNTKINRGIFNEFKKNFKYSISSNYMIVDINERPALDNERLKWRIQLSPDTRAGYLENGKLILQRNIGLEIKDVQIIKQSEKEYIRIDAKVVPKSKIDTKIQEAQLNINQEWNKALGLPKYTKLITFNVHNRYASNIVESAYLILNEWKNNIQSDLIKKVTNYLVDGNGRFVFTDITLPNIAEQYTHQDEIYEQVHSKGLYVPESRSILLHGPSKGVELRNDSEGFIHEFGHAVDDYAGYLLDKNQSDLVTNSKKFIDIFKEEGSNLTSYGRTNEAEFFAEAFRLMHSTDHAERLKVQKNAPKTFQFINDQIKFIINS

One may read the IC50 as the point on the concentration scale where inhibition reaches its midpoint. Turning to `c1ccc(C2CC(c3ccccn3)=NN2c2ccccc2)cc1` (centres undefined), the IC50 was > 20 µM (inactive).
For the compound `COc1ccc(N2N=C(c3cccnc3)CC2c2ccccc2)cc1` (centres undefined), the IC50 was > 20 µM (inactive).
For the compound `CNC(=O)c1ccc(N2N=C(c3ccccc3)CC2c2ccccc2)cc1` (centres undefined), the IC50 was > 20 µM (inactive).
As for `CC(C)NC(=O)c1ccc(N2N=C(c3ccccc3)CC2c2ccccc2)cc1` (centres undefined), the figure is > 20 µM (inactive); as for `CS(=O)(=O)c1ccc(N2N=C(c3cccnc3)CC2c2ccccc2)cc1` (centres undefined), > 20 µM (inactive); as for `NS(=O)(=O)c1ccc(N2N=C(c3ccccc3)CC2c2ccccc2)cc1` (centres undefined), > 20 µM (inactive).
For the compound `c1ccc(-c2cc(-c3ccccc3)n(-c3ccccc3)n2)cc1`, the IC50 was > 20 µM (inactive).
With `CSc1ccc(C2=NN(c3ccc(C(=O)N4CCOCC4)cc3)C(c3ccccc3)C2)cc1` (centres undefined) the figure was > 20 µM (inactive); with `O=C(c1ccc(N2N=C(c3ccccc3)CC2c2ccccc2)cc1)N1CCOCC1` (centres undefined), > 20 µM (inactive).
Consider `CC(C)CNC(=O)c1ccc(N2N=C(c3ccccc3)CC2c2ccccc2)cc1` (centres undefined), for which the IC50 was > 20 µM (inactive).
For `c1ccc(C2CC(c3ccncc3)=NN2c2ccccc2)cc1` (centres undefined), the IC50 was > 20 µM (inactive).
Take `CSc1ccc(C2=NN(c3ccc([N+](=O)[O-])cc3)C(c3ccccc3)C2)cc1` (centres undefined): the IC50 is 0.1 µM.
On to `c1ccc(C2=NN(c3ccccc3)C(c3ccccc3)C2)cc1` (centres undefined), for which the IC50 was > 20 µM (inactive).
Regarding `CSc1ccc(C2=NN(c3ccccc3)C(c3ccccc3)C2)cc1` (centres undefined), the IC50 is > 20 µM (inactive).
Regarding `O=[N+]([O-])c1ccc(N2N=C(c3ccccc3)CC2c2ccccc2)cc1` (centres undefined), the IC50 was > 20 µM (inactive).
With `NS(=O)(=O)c1ccc(N2N=C(c3ccncc3)CC2c2ccccc2)cc1` (centres undefined) the figure was > 20 µM (inactive); with `COc1ccc(N2N=C(c3ccncc3)CC2c2ccccc2)cc1` (centres undefined), > 20 µM (inactive).
In the case of `COc1ccc(N2N=C(c3ccc(SC)cc3)CC2c2ccccc2)cc1` (centres undefined), the IC50 was > 20 µM (inactive).
For `COc1ccc(N2N=C(c3ccccn3)CC2c2ccccc2)cc1` (centres undefined), the IC50 is > 20 µM (inactive).
As to `O=C(c1ccc(N2N=C(c3ccccc3)CC2c2ccccc2)cc1)N1CCCCC1` (centres undefined), the IC50 is > 20 µM (inactive).
With `COc1ccc(N2N=C(c3ccccc3)CC2c2ccccc2)cc1` (centres undefined) the figure was > 20 µM (inactive).
Take `CS(=O)(=O)c1ccc(N2N=C(c3ccncc3)CC2c2ccccc2)cc1` (centres undefined): the IC50 is > 20 µM (inactive).
`CSc1ccc(C2=NN(c3ccc(C(=O)N4CCCCC4)cc3)C(c3ccccc3)C2)cc1` (centres undefined): the IC50 was > 20 µM (inactive).
`CSc1ccc(C2=NN(c3ccc(S(N)(=O)=O)cc3)C(c3ccccc3)C2)cc1` (centres undefined): the IC50 is > 20 µM (inactive).
Turning to `c1ccc(C2CC(c3cccnc3)=NN2c2ccccc2)cc1` (centres undefined), the IC50 was > 20 µM (inactive).
For the compound `CNC(=O)c1ccc(N2N=C(c3ccc(SC)cc3)CC2c2ccccc2)cc1` (centres undefined), the IC50 was > 20 µM (inactive).
With `CSc1ccc(C2=NN(c3ccc(S(C)(=O)=O)cc3)C(c3ccccc3)C2)cc1` (centres undefined) the figure was > 20 µM (inactive).
With `CS(=O)(=O)c1ccc(N2N=C(c3ccccc3)CC2c2ccccc2)cc1` (centres undefined), the IC50 is > 20 µM (inactive).
Consider `NS(=O)(=O)c1ccc(N2N=C(c3cccnc3)CC2c2ccccc2)cc1` (centres undefined), for which the IC50 is > 20 µM (inactive).
